Experimental data from US20200371122A1, “BIOMARKER FOR SENESCENT CELLS” (Buck Institute for Research on Aging, priority 2017, published 2020).

Test system: IMR-90 fibroblasts
Format: cell-based, human
Conditions: for number of cells following irradiation: 5 Gy IR, 10 days
Description: Human fetal lung fibroblasts (IMR-90) were cultured in Dulbecco's modified eagle medium (DMEM) supplemented with 10% FBS and penicillin/streptomycin. LL 29 (AnHa) cells were obtained from the ATCC and growth to confluence using the ATCC protocol, but were subcultured as described for IMR-90 before initiation of all experiments. Quiescence was induced by replacing culture media with media containing 0.2% FBS. MCF-7 and MDA-MB-231 breast cancer cells were cultured in RPMI supplemented with 10% FBS and penicillin/streptomycin. All cells were cultured at 3% O2, and used between 25 and 40 population doublings. All cells were mycoplasma free.
RNA was extracted from cells or tissues using commercially available kits (Isolate II—Bioline for cells; Direct-zol—Zymo for tissues) according to the manufacturer's instructions. cDNA synthesis was performed using a High Capacity cDNA Reverse Transcription Kit (Thermo Fisher) according to the manufacturer's instructions. Quantitative PCR was performed on a LightCycler 480 II (Roche) using primers and probes designed for the Universal Probe Library. Primers and probes used for human transcripts were ACTB: 5′-CCAACCGCGAGAAGATGA (SEQ ID NO:1), 5′-TCCATCACGATGCCAGTG (SEQ ID NO:2), Probe #64; TUBA: 5′-cttcgtctccgccatcag (SEQ ID NO:3), 5′-ttgccaatctggacacca (SEQ ID NO:4), Probe #58; ALOX5: 5′-[…] (SEQ ID NO:5), 5′-[…] (SEQ ID NO:6), Probe #64; ALOX5AP: 5′-ggtctgcggggctacttt (SEQ ID NO:7), 5′-[…] (SEQ ID NO:8), Probe #18; ALOX12: 5′-[…] (SEQ ID NO:9), 5′-agccaggtcgtcaggag (SEQ ID NO:10), Probe #32; ALOX15: 5′-[…] (SEQ ID NO:11), 5′-[…] (SEQ ID NO:12), Probe #76; ALOX15B: 5′-[…] (SEQ ID NO:13), 5′-actgggaggcgaagaagg (SEQ ID NO:14), Probe #51; AKR1C1: 5′-catgcctgtcctgggattt (SEQ ID NO:15), 5′-[…] (SEQ ID NO:16), Probe #49; AKR1C2: 5′-ctatgcgcctgcagaggt (SEQ ID NO:17), 5′-[…] (SEQ ID NO:18), Probe #31; AKR1C3: 5′-[…] (SEQ ID NO:19), 5′-[…] (SEQ ID NO:20), Probe #78; CYSLTR2: 5′-[…] (SEQ ID NO:21), 5′-[…] (SEQ ID NO:22), Probe #18; DPEP1: 5′-gacgtcctgaggctggtg (SEQ ID NO:23), 5′-[…] (SEQ ID NO:24), Probe #9 (SEQ ID NO:25), ELOVL2: 5′-[…] (SEQ ID NO:26), 5′-[…] (SEQ ID NO:27), Probe #53; ELOVL4: 5′-catttggcccatggattc (SEQ ID NO:28), 5′-[…] (SEQ ID NO:29), Probe #31; ELOVL5: 5′-cccttccatgcgtccata (SEQ ID NO:30), 5′-[…] (SEQ ID NO:31), Probe #31; EPHX2: 5′-ttctgctggacaccctgaa (SEQ ID NO:32), 5′-[…] (SEQ ID NO:33), Probe #45; GPX4: 5′-ttcccgtgtaaccagttcg (SEQ ID NO:34), 5′-[…] (SEQ ID NO:35), Probe #36; LTA4H: 5′-ctgctctcacggtccagtc (SEQ ID NO:36), 5′-[…] (SEQ ID NO:37), Probe #64; LTBR2: 5′-[…] (SEQ ID NO:38), 5′-[…] (SEQ ID NO:39), Probe #33; LTC4S: 5′-[…] (SEQ ID NO:40), 5′-[…] (SEQ ID NO:41), Probe #18; PTGDS: 5′-[…] (SEQ ID NO:42), 5′-[…] (SEQ ID NO:43), Probe #36; PTGES: 5′-agagatgcctgcccacag (SEQ ID NO:44), 5′-tggccaccacgtacatctt (SEQ ID NO:45), Probe #4; PTGES2: 5′-[…] (SEQ ID NO:46), 5′-[…] (SEQ ID NO:47), Probe #49; PTGES3 (SEQ ID NO:48), 5′-[…] (SEQ ID NO:49), 5′-[…] (SEQ ID NO:50), Probe #48; PTGIS: 5′-[…] (SEQ ID NO:51), 5′-[…] (SEQ ID NO:52), Probe #45; PTGR1: 5′-atgatggggcagcaagtg (SEQ ID NO:53), 5′-cccatcagaaatggagtgc (SEQ ID NO:54), Probe #64; PTGS1: 5′-[…] (SEQ ID NO:55), 5′-gtggtggtccatgttcctg (SEQ ID NO:56), Probe #81; PTGS2: 5′-gatccccagggctcaaac (SEQ ID NO:57), 5′-[…] (SEQ ID NO:58), Probe #61; TBXAS1: 5′-[…] (SEQ ID NO:59), 5′-tgcctcccgtgtgaatct (SEQ ID NO:60), Probe #73; AREG: 5′-[…] (SEQ ID NO:61), 5′-[…] (SEQ ID NO:62), Probe #73; CCL2: 5′-AGTCTCTGCCGCCCTTCT (SEQ ID NO:63), 5′-GTGACTGGGGCATTGATTG (SEQ ID NO:64), Probe #40; CCL27: 5′-[…] (SEQ ID NO:65), 5′-gctgggtggcagtaggaat (SEQ ID NO:66), Probe #18; CXCL1: 5′-[…] (SEQ ID NO:67), 5′-[…] (SEQ ID NO:68), Probe #52; HGF: 5′-[…] (SEQ ID NO:69), 5′-[…]

Question: How did the “number of cells following irradiation” value turn out when CS(=O)(=O)Nc1ccc([N+](=O)[O-])cc1OC1CCCCC1 [NS-398] was run?
Answer: significantly increased

Question: And the “cell number relative to DMSO-treated SEN(IR) cells” value (SEN(IR) cells counted for IL-6 ELISA normalization)?
Answer: increase in cell number

Question: For CC(c1cc2ccccc2s1)N(O)C(N)=O (stereo not drawn) [zileuton], which “number of cells following irradiation” value is on record?
Answer: mildly increased
